Assay results taken from US20240261417A1, “SOS1 DEGRADING AGENT AND PREPARATION METHOD THEREFOR AND APPLICATION THEREOF” (SHANGHAI LEADINGTAC PHARMACEUTICAL CO. LTD., priority 2021, published 2024).

Tests used:
SOS1 protein [1] = molecular target: T1, SOS1 protein (Homo sapiens, UniProt Q07889); test: SOS1 degradation assay (Western blot), NCI-H358 cells; format: cell-based; set-up: The degradation of SOS1 by the compounds was investigated on KRAS G12C mutant human non-small cell lung cancer cells NCI-H358; host or cells: NCI-H358 (human cancer cell lines); conditions: SOS1 degradation, NCI-H358 cells, 24 h, Western blot; for DC50: read-out: NCI-H358 (G12C) DC50; for Dmax: read-out: NCI-H358 (G12C) Dmax
T1 sequence (Q07889 1-1333): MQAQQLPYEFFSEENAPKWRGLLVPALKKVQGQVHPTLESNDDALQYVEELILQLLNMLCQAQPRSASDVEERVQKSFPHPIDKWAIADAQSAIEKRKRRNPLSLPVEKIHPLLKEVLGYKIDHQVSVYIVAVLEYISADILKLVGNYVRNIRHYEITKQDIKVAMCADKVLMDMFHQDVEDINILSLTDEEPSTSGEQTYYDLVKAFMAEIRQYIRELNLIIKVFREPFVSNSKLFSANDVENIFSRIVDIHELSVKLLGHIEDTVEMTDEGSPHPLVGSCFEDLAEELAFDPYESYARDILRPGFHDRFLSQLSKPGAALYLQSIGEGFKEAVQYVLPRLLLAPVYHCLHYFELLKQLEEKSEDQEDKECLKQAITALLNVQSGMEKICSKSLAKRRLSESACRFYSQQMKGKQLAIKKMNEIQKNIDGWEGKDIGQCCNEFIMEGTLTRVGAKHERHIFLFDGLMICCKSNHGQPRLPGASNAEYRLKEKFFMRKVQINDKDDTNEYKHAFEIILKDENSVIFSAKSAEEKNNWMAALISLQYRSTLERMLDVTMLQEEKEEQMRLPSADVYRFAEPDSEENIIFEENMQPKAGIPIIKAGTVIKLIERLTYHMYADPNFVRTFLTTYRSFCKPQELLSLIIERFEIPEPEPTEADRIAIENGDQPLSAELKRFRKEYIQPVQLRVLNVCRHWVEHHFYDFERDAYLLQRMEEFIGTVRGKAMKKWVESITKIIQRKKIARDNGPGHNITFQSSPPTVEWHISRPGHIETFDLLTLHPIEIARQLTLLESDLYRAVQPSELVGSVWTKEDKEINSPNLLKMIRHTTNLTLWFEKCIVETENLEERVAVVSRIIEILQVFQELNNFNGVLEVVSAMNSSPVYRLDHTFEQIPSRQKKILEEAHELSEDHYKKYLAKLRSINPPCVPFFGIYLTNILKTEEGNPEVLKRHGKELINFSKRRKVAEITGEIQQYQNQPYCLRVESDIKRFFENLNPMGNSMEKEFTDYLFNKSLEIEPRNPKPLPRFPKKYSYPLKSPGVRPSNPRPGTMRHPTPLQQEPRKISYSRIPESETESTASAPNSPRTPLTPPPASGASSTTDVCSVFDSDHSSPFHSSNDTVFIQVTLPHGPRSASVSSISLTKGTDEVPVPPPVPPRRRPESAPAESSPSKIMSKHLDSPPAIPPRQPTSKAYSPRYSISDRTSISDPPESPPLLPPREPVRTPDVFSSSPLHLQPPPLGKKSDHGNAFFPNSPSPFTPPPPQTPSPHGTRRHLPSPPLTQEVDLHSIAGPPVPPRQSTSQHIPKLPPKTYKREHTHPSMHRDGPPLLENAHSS
Outline: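 Cells at 5×10^5 per well were treated for 24 h at 37 °C with compound at 0.03–3000 nM final. SOS1 in lysates was measured by Western blot with chemiluminescent densitometry and normalised to the control group. DC50 and Dmax came from nonlinear fits against log concentration.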

SOS1 protein [2] = molecular target: T1, SOS1 protein; test: SOS1 degradation assay (Western blot), A-427 cells; format: cell-based; set-up: host or cells: A-427 (human cancer cell lines); conditions: 24 h; for DC50: read-out: A427 (G12D) DC50; for Dmax: read-out: A427 (G12D) Dmax
Description: The specific procedures were as follows:
0.95 mL of cells were seeded into each well of a 24-well cell culture plate to achieve a cell density of 5×10^5 cells/well; the cell plate was incubated in an incubator at 37° C. with 5% CO2 overnight. Then 50 μL of the compound solution after dilution was added to each of the wells with the corresponding cells, so that the final concentration of the compound was in a range of 0.03-3000 nM. […] After dosing, the cell plate was incubated in an incubator at 37° C. with 5% CO2 for 24 h. […] After the plate was left to stand on ice for 30 min, the protein lysate in each well was transferred to a 1.5 mL centrifuge tube and centrifuged at 15000 g for 20 min at 4° C. The cell lysate supernatant after centrifugation was cryopreserved at −80° C. for testing and was used for determining the degradation level of the SOS1 protein by a WB method. The concentration of total protein in the cell lysate supernatant was determined using the BCA Protein Quantification Kit (Tiangen, PA115-02).
The concentration of total protein in the cell lysate was determined by BCA. The total protein was adjusted to 0.5 μg/μL with PBS and 5× SDS-PAGE protein loading buffer (Beyotime, P0015L), incubated in a water bath at 100° C. for 15 min, incubated in an ice bath on ice for 5 min, centrifuged at 14000 g for 1 min at 4° C., and mixed well as a loading sample for WB. Protein electrophoresis was performed on a precast gel (KeyGEN, KGMGO10W15) with a loading volume of 10 μL (total protein: 5 μg) using a Tris-MOPS-SDS running solution (Adamas, P1598253) at a constant voltage of 120 V for 55 min. After the electrophoresis, the protein on the gel strip was transferred to a PVDF membrane at a constant current of 250 mA for 65 min. After the membrane transfer, the membrane was incubated in 1× QuickBlock blocking buffer (Beyotime, P0235) for 30 min at room temperature. […] The protein map was subjected to gray value analysis by the chemiluminescence imaging system from Clinx. […] Then the degradation rate was calculated by comparing the gray correction value with the gray correction value of the control group. Then nonlinear curve fitting was performed by GraphPad Prism 8 in the logarithmic concentration-inhibition rate to obtain the DC50 and Dmax values of the compounds.

| DC50 (SOS1 protein [1]) [nM] | Dmax (SOS1 protein [1]) [%] | DC50 (SOS1 protein [2]) [nM] | Dmax (SOS1 protein [2]) [%] | SMILES |
| --- | --- | --- | --- | --- |
| < 50 | 80 to 100 | < 50 | 80 to 100 | COc1cc2nc(C)nc(N[C@H](C)c3cc(N)cc(C(F)(F)F)c3)c2cc1[C@H]1CC[C@H](C(=O)N2CCN(CCC3CCC4(CC3)CCN(C(=O)c3ccc(Cl)c(N5CCC(=O)NC5=O)c3)CC4)CC2)CC1 [Example 1, 1-(5-(9-(2-(4-((1R,4R)-4-(4-(((R)-1-(3-amino-5-(trifluoromethyl)phenyl)ethyl)amino)-7-methoxy-2-methylquinazolin-6-yl)cyclohexane-1-carbonyl)piperazin-1-yl)ethyl)-3-azaspiro[5.5]undecane-3-carbonyl)-2-chlorophenyl)dihydropyrimidine-2,4(1H,3H)-dione] |
| < 50 | 80 to 100 | < 50 | 80 to 100 | COc1cc2nc(C)nc(N[C@H](C)c3cc(N)cc(C(F)(F)F)c3)c2cc1[C@H]1CC[C@H](C(=O)N2CCN(CC3CCC4(CC3)CCN(C(=O)c3ccc(Cl)c(N5CCC(=O)NC5=O)c3)CC4)CC2)CC1 [Example 2, 1-(5-(9-((4-((1R,4R)-4-(4-(((R)-1-(3-amino-5-(trifluoromethyl)phenyl)ethyl)amino)-7-methoxy-2-methylquinazolin-6-yl)cyclohexane-1-carbonyl)piperazin-1-yl)methyl)-3-azaspiro[5.5]undecane-3-carbonyl)-2-chlorophenyl)dihydropyrimidine-2,4(1H,3H)-dione] |
| < 50 | 50 to 80 | < 50 | 80 to 100 | COc1cc2nc(C)nc(N[C@H](C)c3cccc4c3CCS4(=O)=O)c2cc1[C@H]1CC[C@H](C(=O)N2CCN(CC3CCC4(CC3)CCN(C(=O)c3ccc(Cl)c(N5CCC(=O)NC5=O)c3)CC4)CC2)CC1 [Example 10, 1-(2-chloro-5-(9-((4-((1R,4R)-4-(4-(((R)-1-(1,1-dioxo-2,3-dihydrobenzo[b]thiophen-4-yl)ethyl)amino)-7-methoxy-2-methylquinazolin-6-yl)cyclohexane-1-carbonyl)piperazin-1-yl)methyl)-3-azaspiro[5.5]undecane-3-carbonyl)phenyl)dihydropyrimidine-2,4(1H,3H)-dione] |
| 100 to 500 | 50 to 80 | < 50 | 50 to 80 | COc1cc2nc(C)nc(N[C@H](C)c3cc(N)cc(C(F)(F)F)c3)c2cc1[C@H]1CC[C@H](C(=O)N2CCC(CCOCC3CCN(C(=O)c4ccc(Cl)c(N5CCC(=O)NC5=O)c4)CC3)CC2)CC1 [Example 19, 1-(5-(4-((2-(1-((1R,4R)-4-(4-(((R)-1-(3-amino-5-(trifluoromethyl)phenyl)ethyl)amino)-7-methoxy-2-methylquinazolin-6-yl)cyclohexane-1-carbonyl)piperidin-4-yl)ethoxy)methyl)piperidine-1-carbonyl)-2-chlorophenyl)dihydropyrimidine-2,4(1H,3H)-dione] |
| < 50 | 80 to 100 | < 50 | 80 to 100 | COc1cc2nc(C)nc(N[C@H](C)c3cc(N)cc(C(F)(F)F)c3)c2cc1[C@H]1CC[C@H](C(=O)N2CCN(CCOCC3CCN(C(=O)c4ccc(Cl)c(N5CCC(=O)NC5=O)c4)CC3)CC2)CC1 [Example 33, 1-(5-(4-((2-(4-((1R,4R)-4-(4-(((R)-1-(3-amino-5-(trifluoromethyl)phenyl)ethyl)amino)-7-methoxy-2-methylquinazolin-6-yl)cyclohexane-1-carbonyl)piperazin-1-yl)ethoxy)methyl)piperidine-1-carbonyl)-2-chlorophenyl)dihydropyrimidine-2,4(1H,3H)-dione] |
| < 50 | 80 to 100 | < 50 | 80 to 100 | CNCc1ccccc1-c1csc([C@@H](C)Nc2nc(C)nc3cc(OC)c([C@H]4CC[C@H](C(=O)N5CCN(CC6CCC7(CC6)CCN(C(=O)c6ccc(OC)c(N8CCC(=O)NC8=O)c6)CC7)CC5)CC4)cc23)c1 [Example 73, 1-(2-methoxy-5-(9-((4-((1R,4R)-4-(7-methoxy-2-methyl-4-(((R)-1-(4-(2-((methylamino)methyl)phenyl)thien-2-yl)ethyl)amino)quinazolin-6-yl)cyclohexane-1-carbonyl)piperazin-1-yl)methyl)-3-azaspiro[5.5]undecane-3-carbonyl)phenyl)dihydropyrimidine-2,4(1H,3H)-dione] |
